ChEMBL document CHEMBL1781917, “Computational aqueous solubility prediction for drug-like compounds in congeneric series” (Eur J Med Chem, 2008)

Assays:
Assay type in all cases: physicochemical
[1] = Intrinsic solubility, log 1/S0 of the compound
[2] = Lipophilicity, log P of the compound; settings: octanol/water
[3] = Dissociation constant, pKa of the compound

| SMILES | log1/S0 [1] | logP [2] | pKa [3] |
| --- | --- | --- | --- |
| COC(OC)n1c(=O)[nH]c2c(=O)n(CC(=O)NC(C(=O)C(F)(F)F)C(C)C)c(-c3ccccc3)cc2c1=O (stereo unspecified) | 3.11 | – | – |
| Cc1ccnc(NS(=O)(=O)c2ccc(N)cc2)n1 [SULFAMERAZINE] | – | 0.13 | – |
| Cc1cc(NS(=O)(=O)c2ccc(N)cc2)nc(C)n1 [SULFISOMIDINE] | 2.78 | -0.3 | – |
| COc1ccc(NS(=O)(=O)c2ccc(N)cc2)nn1 [SULFAMETHOXYPYRIDAZINE] | 2.55 | 0.4 | – |
| Cc1noc(NS(=O)(=O)c2ccc(N)cc2)c1C [SULFISOXAZOLE] | 3.45 | 1.15 | – |
| COc1ncnc(NS(=O)(=O)c2ccc(N)cc2)c1OC [SULFADOXINE] | 3.59 | 1.06 | – |
| COc1cc(NS(=O)(=O)c2ccc(N)cc2)nc(C)n1 [SULFAMETOMIDINE] | 3.05 | – | – |
| CC(C)C(NC(=O)Cn1c(-c2ccccc2)cc2c(=O)n(C)c(=O)[nH]c2c1=O)C(=O)C(F)(F)F (stereo unspecified) | 4.03 | – | – |
| CC(C)C(NC(=O)Cn1c(-c2ccccc2)cc2c(=O)n(CCN3CCOCC3)c(=O)[nH]c2c1=O)C(=O)C(F)(F)F (stereo unspecified) | 3.44 | – | 7.04 |
| COc1ccc(Cn2c(=O)[nH]c3c(=O)n(CC(=O)NC(C(=O)C(F)(F)F)C(C)C)c(-c4ccccc4)cc3c2=O)cc1 (stereo unspecified) | 3.4 | – | – |
| CNC(=O)Cn1c(=O)[nH]c2c(=O)n(CC(=O)NC(C(=O)C(F)(F)F)C(C)C)c(-c3ccccc3)cc2c1=O (stereo unspecified) | 3.73 | – | – |
| CC(C)C(NC(=O)Cn1c(-c2ccccc2)cc2c(=O)n(CC(N)=O)c(=O)[nH]c2c1=O)C(=O)C(F)(F)F (stereo unspecified) | 3.6 | – | – |
| CN1C(=O)CN=C(c2ccccc2)c2cc(Cl)ccc21 [DIAZEPAM] | 3.83 | – | – |
| CN1CCN=C(c2ccccc2)c2cc(Cl)ccc21 [MEDAZEPAM] | 4.41 | – | – |
| CCOCCn1c(=O)[nH]c2c(=O)n(CC(=O)NC(C(=O)C(F)(F)F)C(C)C)c(-c3ccccc3)cc2c1=O (stereo unspecified) | 4.83 | – | – |
| COc1cnc(NS(=O)(=O)c2ccc(N)cc2)nc1 | 3.63 | 0.46 | – |
| Cc1cc(C)nc(NS(=O)(=O)c2ccc(N)cc2)n1 [SULFAMETHAZINE] | – | 0.89 | – |
| O=C1CN=C(c2ccccc2Cl)c2cc(Cl)ccc2N1 [DELORAZEPAM] | 3.97 | – | – |
| Nc1ccc(S(=O)(=O)Nc2ncccn2)cc1 [SULFADIAZINE] | 3.67 | -0.13 | – |
